Values after ≈ are worked out from the molar mass of the structure shown. Where two headings read alike, the source gives them in different places.
Test system: Atopobium vaginae
Test: MIC determination on Brucella agar, susceptibility of Atopobium vaginae strains
Assay type: cell-based
Conditions: for MIC: Fannyhessea vaginae
[1] = all tested strains of Atopobium vaginae

| MIC (CCUG43049, Atopobium vaginae strain CCUG 43049, Brucella agar, anaerobic, read-out: MIC) [µg/mL] | MIC (CCUG44061, Atopobium vaginae strain CCUG 44061, Brucella agar, anaerobic, read-out: MIC) [µg/mL] | MIC (CCUG44116, Atopobium vaginae strain CCUG 44116, Brucella agar, anaerobic, read-out: MIC) [µg/mL] | MIC (CCUG44125, Atopobium vaginae strain CCUG 44125, Brucella agar, anaerobic, read-out: MIC) [µg/mL] | MIC (CCUG44156, Atopobium vaginae strain CCUG 44156, Brucella agar, anaerobic, read-out: MIC) [µg/mL] | MIC (CCUG44258, Atopobium vaginae strain CCUG 44258, Brucella agar, anaerobic, read-out: MIC) [µg/mL] | MIC (CCUG48515, Atopobium vaginae strain CCUG 48515, Brucella agar, anaerobic, read-out: MIC) [µg/mL] | MICs (range over all strains) [1] [µg/mL] | SMILES | susceptibility of Atopobium to the agent (conclusion from MIC) [1] | MIC [µg/mL] | MIC (CCUG42099) [µg/mL] | MIC (CCUG43049) [µg/mL] | MIC (CCUG44061) [µg/mL] | MIC (CCUG44116) [µg/mL] | MIC (CCUG44125) [µg/mL] | MIC (CCUG44156) [µg/mL] | MIC (CCUG44258) [µg/mL] | MIC (CCUG48515) [µg/mL] |
| --- | --- | --- | --- | --- | --- | --- | --- | --- | --- | --- | --- | --- | --- | --- | --- | --- | --- | --- |
| 16 (≈ 93.5 µM) | 64 (≈ 374 µM) | 32 (≈ 187 µM) | 16 (≈ 93.5 µM) | 8 (≈ 46.7 µM) | 32 (≈ 187 µM) | 32 (≈ 187 µM) | 8 to 256 | Cc1ncc([N+](=O)[O-])n1CCO [Metronidazole, metronidazole] | resistant |  |  |  |  |  |  |  |  |  |
|  |  |  |  |  |  |  |  | CSCC1CN(/N=C/c2ccc([N+](=O)[O-])o2)C(=O)O1 (stereo not shown) [Nifuratel, nifuratel] | sensitive | 1 (≈ 3.51 µM) | 0.5 (≈ 1.75 µM) | 0.25 (≈ 0.876 µM) | 1 (≈ 3.51 µM) | 0.5 (≈ 1.75 µM) | 0.25 (≈ 0.876 µM) | 0.125 (≈ 0.438 µM) | 0.5 (≈ 1.75 µM) | 0.5 (≈ 1.75 µM) |

Source: US8673886B2, “Use of nifuratel to treat infections caused by Atopobium species” (Polichem SA, priority 2009, dated 2014)
